Read-outs that look alike come from different tables or passages of the source.
Assays:
barnyardgrass = assay: Test A pre-/postemergence herbicide test; format: in vivo, Echinochloa crus-galli; conditions: for pest or weed control at 500 g/ha / pest or weed control at 2000 g/ha: Echinochloa crus-galli, 240 h
How it was run: (§1)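 Plants are held in greenhouse about ten days after treatment, then compared with untreated controls and scored 0 (no effect) to 100 (complete control). Preemergence dosing is a directed soil spray on sown sandy loam; postemergence dosing is spray to runoff at 2–10 cm height.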

velvetleaf = assay: Test A pre-/postemergence herbicide test; format: in vivo, Abutilon theophrasti; conditions: for pest or weed control at 500 g/ha / pest or weed control at 2000 g/ha: Abutilon theophrasti, 240 h
How it was run: as §1

cocklebur = assay: Test C pre-/postemergence herbicide test; format: in vivo, Xanthium strumarium
How it was run: (§2)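 Greenhouse-grown plants were evaluated visually 12 to 14 days after treatment, with 100 meaning complete control and 0 no effect. Application was preemergence, or postemergence at 2 to 18 cm.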

kochia = assay: Test C pre-/postemergence herbicide test; format: in vivo, Kochia scoparia
How it was run: as §2

lambsquarters = assay: Test C pre-/postemergence herbicide test; format: in vivo, Chenopodium album
How it was run: as §2

morningglory = assay: Test C pre-/postemergence herbicide test; format: in vivo, Ipomoea coccinea; set-up: key to Plant response rating, Morningglory: 0 = no effect, 100 = complete control
How it was run: as §2

common ragweed = assay: Test C pre-/postemergence herbicide test; format: in vivo, Ambrosia elatior; set-up: key to Plant response rating, Ragweed: 0 = no effect, 100 = complete control
How it was run: as §2

[1] = test system: smallflower umbrella sedge; assay: Test C flooded paddy test; format: in vivo, Cyperus difformis
ducksalad = assay: Test C flooded paddy test; format: in vivo, Heteranthera limosa
[2] = Postemergence, 500 g ai/ha, 0 to 100 scale, 0 no effect, 100 complete control
[3] = Postemergence, 2000 g ai/ha, 0 to 100 scale, 0 no effect, 100 complete control
[4] = Preemergence, 2000 g ai/ha, visual rating, 0 to 100 scale (0 no effect, 100 complete control)
[5] = Postemergence, 500 g ai/ha, scale 0 to 100
[6] = Postemergence, 250 g ai/ha, scale 0 to 100, 0 no effect, 100 complete control
[7] = Preemergence, 500 g ai/ha, scale 0 to 100, 0 no effect, 100 complete control
[8] = postemergence, 125 g ai/ha, scale 0 to 100
[9] = postemergence, 62 g ai/ha, scale 0 to 100
[10] = 125 g ai/ha, scale 0 (no effect) to 100 (complete control), visual, 12 to 14 days, preemergence
[11] = 62 g ai/ha, scale 0 to 100 (0 no effect, 100 complete control)
[12] = 125 g ai/ha, scale 0 to 100 (0 no effect, 100 complete control)

## C#CCNC(=O)c1cccc(NC(=O)c2cc(C(C)(C)C)nn2CC)n1 [Compound 147]
barnyardgrass; [2]
  Barnyardgrass plant response rating: 55
barnyardgrass; [3]
  Plant response rating, Barnyardgrass: 95
barnyardgrass; Preemergence, 500 g ai/ha, visual rating, 0 to 100 scale (0 no effect, 100 complete control)
  Barnyardgrass plant response rating: 40
barnyardgrass; [4]
  Barnyardgrass plant response rating: 95
velvetleaf; [2]
  Velvetleaf plant response rating: 30
velvetleaf; [3]
  Plant response rating, Velvetleaf: 50
velvetleaf; [4]
  Velvetleaf plant response rating: 85
velvetleaf; preemergence, 500 g ai/ha, visual injury, 0 to 100 scale (0 no effect, 100 complete control)
  Velvetleaf plant response rating: 25
cocklebur; 62 g ai/ha, preemergence
  Plant response rating (0 = no effect, 100 = complete control), Cocklebur: 0
cocklebur; [5]
  Cocklebur plant response rating: 20
cocklebur; [6]
  Plant response rating, Cocklebur: 5
cocklebur; [7]
  Cocklebur plant response rating: 0
cocklebur; [8]
  Plant response rating, Cocklebur: 5
cocklebur; [9]
  Plant response rating, Cocklebur: 0
kochia; [10]
  Plant response rating, Kochia: 40
kochia; [5]
  Kochia plant response rating: 80
kochia; [6]
  Plant response rating, Kochia: 50
kochia; [7]
  Kochia plant response rating: 100
kochia; [8]
  Plant response rating, Kochia: 10
kochia; [9]
  Plant response rating, Kochia: 5
lambsquarters; 62 g ai/ha, preemergence
  Plant response rating (0 = no effect, 100 = complete control), Lambsquarters: 70
lambsquarters; [10]
  Plant response rating, Lambsquarters: 90
lambsquarters; [5]
  Lambsquarters plant response rating: 100
lambsquarters; [6]
  Plant response rating, Lambsquarters: 100
lambsquarters; [7]
  Lambsquarters plant response rating: 100
lambsquarters; [8]
  Plant response rating, Lambsquarters: 100
lambsquarters; [9]
  Plant response rating, Lambsquarters: 90
morningglory; 62 g ai/ha, preemergence
  Plant response rating (0 = no effect, 100 = complete control), Morningglory: 0
morningglory; [10]
  Plant response rating, Morningglory: 0
morningglory; [5]
  Morningglory plant response rating: 0
morningglory; [6]
  Plant response rating, Morningglory: 0
morningglory; [7]
  Morningglory plant response rating: 0
morningglory; [8]
  Plant response rating, Morningglory: 0
morningglory; [9]
  Plant response rating, Morningglory: 0
Common ragweed; 62 g ai/ha, preemergence
  Plant response rating (0 = no effect, 100 = complete control), Ragweed: 0
Common ragweed; [10]
  Plant response rating, Ragweed: 0
Common ragweed; [5]
  Ragweed plant response rating: 10
Common ragweed; [6]
  Plant response rating, Ragweed: 10
Common ragweed; [7]
  Ragweed plant response rating: 70
Common ragweed; [8]
  Plant response rating, Ragweed: 0
Common ragweed; [9]
  Plant response rating, Ragweed: 0
[1]; 16 g ai/ha, scale 0 to 100
  Sedge, Umbrella plant response rating: 0
[1]; 31 g ai/ha, scale 0 to 100
  Sedge, Umbrella plant response rating: 20
[1]; [11]
  Sedge, Umbrella plant response rating: 30
[1]; [12]
  Sedge, Umbrella plant response rating: 50
ducksalad; 16 g ai/ha, scale 0 to 100
  Ducksalad plant response rating: 0
ducksalad; 31 g ai/ha, scale 0 to 100
  Ducksalad plant response rating: 0
ducksalad; [11]
  Ducksalad plant response rating: 0
ducksalad; [12]
  Ducksalad plant response rating: 0

## CCN1N=C(C(C)(C)C)CC1C(=O)Nc1cc(C(=O)N(C)C)ccc1F (stereo not drawn) [Compound 268, N-[5-[(dimethylamino)carbonyl]-2-fluorophenyl]-3-(1,1-dimethylethyl)-1-ethyl-4,5-dihydro-1H-pyrazole-5-carboxamide]
barnyardgrass; post-emergence, Postemergence, 500 g ai/ha, 0 to 100 scale, 0 no effect, 100 complete control, read-out: Barnyardgrass plant response rating
  pest or weed control at 500 g/ha: 80%
barnyardgrass; post-emergence, Postemergence, 2000 g ai/ha, 0 to 100 scale, 0 no effect, 100 complete control, read-out: Plant response rating, Barnyardgrass
  pest or weed control at 2000 g/ha: 80%
barnyardgrass; pre-emergence, Preemergence, 2000 g ai/ha, visual rating, 0 to 100 scale (0 no effect, 100 complete control), read-out: Barnyardgrass plant response rating
  pest or weed control at 2000 g/ha: 100%
barnyardgrass; pre-emergence, preemergence, 500 g ai/ha, visual injury, 0 to 100 scale (0 no effect, 100 complete control), read-out: Barnyardgrass plant response rating
  pest or weed control at 500 g/ha: 100%
velvetleaf; post-emergence, Postemergence, 500 g ai/ha, 0 to 100 scale, 0 no effect, 100 complete control, read-out: Velvetleaf plant response rating
  pest or weed control at 500 g/ha: 45%
velvetleaf; post-emergence, Postemergence, 2000 g ai/ha, 0 to 100 scale, 0 no effect, 100 complete control, read-out: Plant response rating, Velvetleaf
  pest or weed control at 2000 g/ha: 45%
velvetleaf; pre-emergence, Preemergence, 2000 g ai/ha, visual rating, 0 to 100 scale (0 no effect, 100 complete control), read-out: Velvetleaf plant response rating
  pest or weed control at 2000 g/ha: 100%
velvetleaf; pre-emergence, preemergence, 500 g ai/ha, visual injury, 0 to 100 scale (0 no effect, 100 complete control), read-out: Velvetleaf plant response rating
  pest or weed control at 500 g/ha: 95%
cocklebur; Xanthium strumarium, pre-emergence, 312 h, 62 g ai/ha, preemergence, scale 0 to 100, read-out: Plant response rating, Cocklebur
  pest or weed control at 62 g/ha: 10%
cocklebur; Xanthium strumarium, pre-emergence, 312 h, 125 g ai/ha, scale 0 (no effect) to 100 (complete control), visual, 12 to 14 days, read-out: Plant response rating, Cocklebur
  pest or weed control at 125 g/ha: 60%
cocklebur; Xanthium strumarium, pre-emergence, 312 h, 250 g ai/ha, scale 0-100, read-out: Plant response rating, Cocklebur
  pest or weed control at 250 g/ha: 70%
cocklebur; Xanthium strumarium, pre-emergence, 312 h, Preemergence, 500 g ai/ha, scale 0 to 100, 0 no effect, 100 complete control, read-out: Cocklebur plant response rating
  pest or weed control at 500 g/ha: 85%
kochia; Bassia scoparia, pre-emergence, 62 g ai/ha, preemergence, scale 0 to 100, read-out: Plant response rating, Kochia
  pest or weed control at 62 g/ha: 100%
kochia; Bassia scoparia, pre-emergence, 125 g ai/ha, scale 0 (no effect) to 100 (complete control), visual, 12 to 14 days, read-out: Plant response rating, Kochia
  pest or weed control at 125 g/ha: 100%
kochia; Bassia scoparia, pre-emergence, 250 g ai/ha, scale 0-100, read-out: Plant response rating, Kochia
  pest or weed control at 250 g/ha: 100%
kochia; Bassia scoparia, pre-emergence, 500 g ai/ha, scale 0 to 100 (0 no effect, 100 complete control), visual, 12 to 14 days, read-out: Plant response rating, Kochia
  pest or weed control at 500 g/ha: 100%
lambsquarters; Chenopodium album, pre-emergence, 62 g ai/ha, preemergence, scale 0 to 100, read-out: Plant response rating, Lambsquarters
  pest or weed control at 62 g/ha: 100%
lambsquarters; Chenopodium album, pre-emergence, 125 g ai/ha, scale 0 (no effect) to 100 (complete control), visual, 12 to 14 days, read-out: Plant response rating, Lambsquarters
  pest or weed control at 125 g/ha: 100%
lambsquarters; Chenopodium album, pre-emergence, 250 g ai/ha, scale 0-100, read-out: Plant response rating, Lambsquarters
  pest or weed control at 250 g/ha: 100%
lambsquarters; Chenopodium album, pre-emergence, 500 g ai/ha, scale 0 to 100 (0 no effect, 100 complete control), visual, 12 to 14 days, read-out: Plant response rating, Lambsquarters
  pest or weed control at 500 g/ha: 100%
morningglory; Ipomoea, pre-emergence, 62 g ai/ha, preemergence, scale 0 to 100, read-out: Plant response rating, Morningglory
  pest or weed control at 62 g/ha: 0%
morningglory; Ipomoea, pre-emergence, 125 g ai/ha, scale 0 (no effect) to 100 (complete control), visual, 12 to 14 days, read-out: Plant response rating, Morningglory
  pest or weed control at 125 g/ha: 0%
morningglory; Ipomoea, pre-emergence, 250 g ai/ha, scale 0-100, read-out: Plant response rating, Morningglory
  pest or weed control at 250 g/ha: 5%
morningglory; Ipomoea, pre-emergence, 500 g ai/ha, scale 0 to 100 (0 no effect, 100 complete control), visual, 12 to 14 days, read-out: Plant response rating, Morningglory
  pest or weed control at 500 g/ha: 5%
Common ragweed; Ambrosia artemisiifolia, pre-emergence, 62 g ai/ha, preemergence, scale 0 to 100, read-out: Plant response rating, Ragweed
  pest or weed control at 62 g/ha: 70%
Common ragweed; Ambrosia artemisiifolia, pre-emergence, 250 g ai/ha, scale 0-100, read-out: Plant response rating, Ragweed
  pest or weed control at 250 g/ha: 100%
Common ragweed; Ambrosia artemisiifolia, pre-emergence, 500 g ai/ha, scale 0 to 100 (0 no effect, 100 complete control), visual, 12 to 14 days, read-out: Plant response rating, Ragweed
  pest or weed control at 500 g/ha: 100%
[1]; Cyperus difformis, 62 g ai/ha, scale 0 to 100, read-out: Sedge, Umbrella plant response rating
  pest or weed control at 62 g/ha: 55%
[1]; Cyperus difformis, 125 g ai/ha, scale 0 to 100 (0 no effect, 100 complete control), read-out: Sedge, Umbrella plant response rating
  pest or weed control at 125 g/ha: 70%
[1]; Cyperus difformis, 250 g ai/ha, scale of 0 to 100, 0 is no effect, 100 is complete control, read-out: Sedge, Umbrella plant response rating
  pest or weed control at 250 g/ha: 80%
[1]; Cyperus difformis, 500 g ai/ha, visual rating after 12 to 14 days, scale 0 to 100 (0 no effect, 100 complete control), read-out: Plant response rating, Sedge, Umbrella
  pest or weed control at 500 g/ha: 95%
ducksalad; Heteranthera limosa, 62 g ai/ha, scale 0 to 100, read-out: Ducksalad plant response rating
  pest or weed control at 62 g/ha: 60%
ducksalad; Heteranthera limosa, 125 g ai/ha, scale 0 to 100 (0 no effect, 100 complete control), read-out: Ducksalad plant response rating
  pest or weed control at 125 g/ha: 70%
ducksalad; Heteranthera limosa, 250 g ai/ha, scale of 0 to 100, 0 is no effect, 100 is complete control, read-out: Ducksalad plant response rating
  pest or weed control at 250 g/ha: 85%
ducksalad; Heteranthera limosa, 500 g ai/ha, visual rating after 12 to 14 days, scale 0 to 100 (0 no effect, 100 complete control), read-out: Plant response rating, Ducksalad
  pest or weed control at 500 g/ha: 90%

Source: patent publication US20060069132A1, “Azolecarboxamide herbicides” (priority 2004, published 2006)
